Results taken from PMC8842277, “Highly Antiproliferative Latonduine and Indolo[2,3-c]quinoline Derivatives: Complex Formation with Copper(II) Markedly Changes the Kinase Inhibitory Profile” (Journal of Medicinal Chemistry, 2022).

Assays:
[1] = tested on: normal human embryonal lung fibroblast cells (MRC-5); experiment: MTT antiproliferative assay; format: cell-based; details: 72 h, read-out: IC50 MRC-5 benign, mean
Protocol: (§1) The in vitro antiproliferative activity of the compounds was tested in doxorubicin-sensitive Colo205 and multidrug-resistant Colo320 human colon adenocarcinoma cell lines as well as in normal human embryonal lung fibroblast cells (MRC-5) by MTT assay.
(§2) Human colonic adenocarcinoma cell lines Colo 205 doxorubicin-sensitive (ATCC-CCL-222) and Colo 320/MDR-LRP multidrug resistant over-expressing ABCB1 (MDR1)-LRP (ATCC-CCL-220.1) were purchased from LGC Promochem, Teddington, UK. The cells were cultured in an RPMI 1640 medium supplemented with 10% heat-inactivated fetal bovine serum, 2 mM L-glutamine, 1 mM Na-pyruvate, and 10 mM HEPES. The semi-adherent human colon cancer cells were detached with Trypsin-Versene (EDTA) solution for 5 min at 37 °C. An MRC-5 human embryonal lung fibroblast cell line (ATCC CCL-171) was purchased from LGC Promochem, Teddington, UK. The cells were cultured in Eagle’s minimal essential medium (EMEM, containing 4.5 g L^–1 glucose) supplemented with a non-essential amino acid mixture, a selection of vitamins, and 10% heat-inactivated fetal bovine serum. The HCT-116 colon carcinoma cells and isogenic p53-knock-out subline were a gift of Prof. Bert Vogelstein from The Johns Hopkins Oncology Center. Cells were cultured in McCoy’s 5A medium supplemented with 10% heat-inactivated fetal bovine serum and 4 mM L-glutamine. All cell lines were incubated at 37 °C, in a 5% CO2, 95% air atmosphere.
(§3) MRC-5 non-cancerous human embryonic lung fibroblast and human colonic adeno-carcinoma cell lines (doxorubicin-sensitive Colo 205 and multidrug resistant Colo 320 colonic adenocarcinoma cells) were used to determine the effect of compounds on cell growth. The effects of increasing concentrations of compounds on cell growth were tested in 96-well flat-bottomed microtiter plates. The compounds were dissolved in DMSO and stock solutions of 10 mM were prepared. These were further diluted in the appropriate cell culture medium by twofold serial dilution starting from 100 or 10 μM for the compounds. The adherent human embryonal lung fibroblast cells were cultured in 96-well flat-bottomed microtiter plates using EMEM supplemented with 10% heat-inactivated fetal bovine serum. The density of the cells was adjusted to 1 × 10^4 cells in 100 μL per well, the cells were seeded for 24 h at 37 °C, 5% CO2, then the medium was removed from the plates containing the cells, and the dilutions of compounds previously made in a separate plate were added to the cells in 200 μL. In the case of the colonic adenocarcinoma cells, the twofold serial dilutions of compounds were prepared in 100 μL of RPMI 1640, horizontally. The semi-adherent colonic adenocarcinoma cells were treated with Trypsin-Versene (EDTA) solution. They were adjusted to a density of 1 × 10^4 cells in 100 μL of RPMI 1640 medium and were added to each well, with the exception of the medium control wells. The final volume of the wells containing compounds and cells was 200 μL. The culture plates were incubated at 37 °C for 72 h; at the end of the incubation period, 20 μL of MTT (thiazolyl blue tetrazolium bromide, Sigma) solution (from a stock solution of 5 mg mL^–1) was added to each well. After incubation at 37 °C for 4 h, 100 μL of sodium dodecyl sulfate (SDS) (Sigma) solution (10% in 0.01 M HCI) was added to each well and the plates were further incubated at 37 °C overnight. Cell growth was determined by measuring the optical density (OD) at 540/630 nm with a Multiscan EX ELISA reader (Thermo Labsystems, Cheshire, WA, USA). […] Curves were fitted by GraphPad Prism software[57] using the sigmoidal dose–response model (comparing variable and fixed slopes). The IC50 values were obtained from at least three independent experiments. Tests in adherent HCT-116 colon carcinoma cells and an isogenic p53-knock-out subline thereof were performed in a similar manner, with 1.5 × 10^3 cells seeded in 100 μL of McCoy’s 5A medium (Sigma-Aldrich) per well. […]

[2] = tested on: multidrug-resistant Colo320 human colon adenocarcinoma cells; experiment: MTT antiproliferative assay; format: cell-based; details: for selectivity factor (SF) Colo320: IC50 MRC-5/IC50 Colo320; for IC50: MTT, 72 h
Protocol: as §1, §2, §3

[3] = tested on: doxorubicin-sensitive Colo205 human colon adenocarcinoma cells; experiment: MTT antiproliferative assay; format: cell-based; details: for selectivity factor (SF) Colo205: IC50 MRC-5/IC50 Colo205; for IC50: MTT, 72 h
Protocol: as §1, §2, §3

[4] = tested on: HCT-116 isogenic p53-knock-out subline; experiment: MTT assay, 96 h; format: cell-based, human; details: read-out: IC50 HCT-116p53ko, mean
Description: The oncosuppressor protein p53 controls the cellular response to DNA strand breaks induced by cytotoxic drugs or by radiation.[58] The p53 protein may enhance cell chemosensitivity by promoting apoptosis via different mechanisms including activation of proapoptotic genes such as bax and repression of antiapoptotic genes such as bcl-2 or in contrast increase chemoresistance by promoting p21-mediated and p21-independent growth arrest and DNA repair and by activation of antiapoptotic genes such as bcl-x. There is strong evidence that the modulation of drug sensitivity by p53 may be both drug- and cell type-specific.[59] […] Accordingly, essential differences in chemosensitivity were observed between cells with wild-type p53 gene and cells with knocked out p53 gene by homologous recombination.[60]
as §2
MRC-5 non-cancerous human embryonic lung fibroblast and human colonic adeno-carcinoma cell lines (doxorubicin-sensitive Colo 205 and multidrug resistant Colo 320 colonic adenocarcinoma cells) were used to determine the effect of compounds on cell growth. The effects of increasing concentrations of compounds on cell growth were tested in 96-well flat-bottomed microtiter plates. The compounds were dissolved in DMSO and stock solutions of 10 mM were prepared. These were further diluted in the appropriate cell culture medium by twofold serial dilution starting from 100 or 10 μM for the compounds. The adherent human embryonal lung fibroblast cells were cultured in 96-well flat-bottomed microtiter plates using EMEM supplemented with 10% heat-inactivated fetal bovine serum. The density of the cells was adjusted to 1 × 10^4 cells in 100 μL per well, the cells were seeded for 24 h at 37 °C, 5% CO2, then the medium was removed from the plates containing the cells, and the dilutions of compounds previously made in a separate plate were added to the cells in 200 μL. In the case of the colonic adenocarcinoma cells, the twofold serial dilutions of compounds were prepared in 100 μL of RPMI 1640, horizontally. The semi-adherent colonic adenocarcinoma cells were treated with Trypsin-Versene (EDTA) solution. They were adjusted to a density of 1 × 10^4 cells in 100 μL of RPMI 1640 medium and were added to each well, with the exception of the medium control wells. […]

| Structure (SMILES) | IC50 [1] | selectivity factor (SF) Colo320 [2] | IC50 [2] | selectivity factor (SF) Colo205 [3] | IC50 [3] | IC50 [4] |
| --- | --- | --- | --- | --- | --- | --- |
| CC(=NNC1=NCc2ccccc2-c2c1[nH]c1ccc(Br)cc21)c1ccc(CN2CCOCC2)cn1.[Cl][Cu][Cl] [compound 4, CuCl2(HL^4)·0.5H2O] | 397 nM | 3.64 | 109 nM | 1.80 | 220 nM | – |
| CC(=NNc1nc2ccccc2c2c1[nH]c1ccc(Br)cc12)c1ccc(CN2CCOCC2)cn1.[Cl][Cu][Cl] [compound 8, CuCl2(HL^8)·H2O] | 165 nM | 0.30 | 547 nM | 4.38 | 38 nM | 41 nM |
